Measured values published in US20210115366A1, “METHODS OF MAKING IMPROVED HUMAN INTESTINAL ORGANOID COMPOSITIONS VIA APPLICATION OF STRAIN AND HUMAN INTESTINAL ORGANOID COMPOSITIONS THEREOF” (Children's Hospital Medical Center, priority 2017, published 2021).
pEC50: −log10 of the molar value. Entries after “also recorded” stand apart in the source; their conditions may differ.

Legend:
[1] = system: tHIO; test: Ex vivo muscle strength (organ bath, isometric force) of tHIO muscle strips; set-up: species or system human
Method: (§1) After an equilibration period, muscle force contraction was assayed using a logarithmic series of bethanechol doses ranging in concentration from 1 nM to 10 mM. Representative tensile response recordings are plotted for tHIO, tHIO+S and adult jejunum (FIG. 7B). […] To better visualize the differences between tHIO and tHIO+S the data was also plotted sans adult jejunum (FIG. 7C, right panel).
(§2) tHIO and tHIO+S grafts were harvested and placed in ice-cold Hank's Balanced Salt Solution (HBSS). Human surgical samples were maintained overnight at 4° C. in HBSS prior to assaying in order to minimize the effects of anesthetics. Muscle strips (4-6 mm in length and 1-2 mm in width) were dissected from the samples. Strips were then suspended vertically in an organ bath chamber (Radnoti) filled with freshly prepared Krebs-Ringer solution (Sigma; supplemented with 2.5 mM CaCl and 15 mM NaHCO3; pH 7.4), warmed to 37° C. and gassed with 95% O2+5% CO2. Segments were allowed to equilibrate for an hour at an initial tension of 0.5 g. The contractile response of the muscle was continuously recorded, using 4-chamber tissue-organ bath chambers with isometric force transducers (0-25 g; AD Instruments) coupled to a multi-channel bridge amplifiers and data recorder (AD Instruments; PowerLab 4/35) linked to a computer equipped with LabChart Pro software (AD Instruments). […]

[2] = system: tHIO+S; test: Ex vivo muscle strength (organ bath, isometric force) of tHIO+S muscle strips; set-up: species or system human
Method: as §1, §2

[3] = system: adult human jejunum; test: Ex vivo muscle strength (organ bath, isometric force) of adult jejunum muscle strips
Method: as §1, §2

[4] = system: infant jejunum; test: Ex vivo muscle strength (organ bath, isometric force) of infant jejunum muscle strips; set-up: species or system human; settings: 10 μM after bethanechol dose series
Method: as §1, §2

[5] = 10 μM after bethanechol dose series

Compound | tensile response to bethanechol ([1]; 1 nM to 10 mM, EC50 with 95% confidence could not be determined) | pEC50 ([2]; Homo sapiens, logarithmic doses 1 nM to 10 mM, read-out: effective concentration to achieve half of the maximal response (EC50), muscle contraction) | pEC50 ([3]; adult human jejunum muscle strips, logarithmic doses 1 nM to 10 mM, read-out: effective concentration to achieve half of the maximal response (EC50), muscle contraction) | tension before and after administration of scopolamine (relaxation) [1, 5] | tension before and after administration of scopolamine (relaxation) [2, 5] | tension before and after administration of scopolamine (relaxation) [4] | tension before and after administration of scopolamine (relaxation) ([3]; adult jejunum muscle strips, 10 μM after bethanechol dose series)
CC(C[N+](C)(C)C)OC(N)=O (stereo not shown) [bethanechol, Carbamyl-p-methylcholine chloride] | low overall tensile response | 4.83 | 5.48 |  |  |  | 
CN1[C@@H]2C[C@@H](OC(=O)[C@H](CO)c3ccccc3)C[C@H]1[C@@H]1O[C@@H]12 [scopolamine] |  |  |  | Relaxation was successfully induced; also recorded: relaxation is observed | Relaxation was successfully induced; also recorded: relaxation is observed | Relaxation was successfully induced | Relaxation was successfully induced
